Measurements reported in patent publication US4792545A, “Boholmycin antibiotic” (Bristol-Myers Company, priority 1986, dated 1988).
In brackets after ≈: the same amount, converted by molar mass.

Experiments:
P. mirabilis A9554 = assay: MIC by serial agar dilution; format: cell-based; conditions: Proteus mirabilis, medium A: Nutrient agar, read-out: MIC
M. flavus D-12 = assay: MIC by serial agar dilution; format: cell-based; conditions: Micrococcus flavus, D12, medium A: Nutrient agar, read-out: MIC
P. aeruginosa A20601 = assay: MIC by serial agar dilution; format: cell-based; conditions: Pseudomonas aeruginosa; P. aeruginosa A20601, kanamycin resistant strain; medium A: Nutrient agar; read-out: MIC
E. coli JR35/c600 = assay: MIC by serial agar dilution; format: cell-based; conditions: Escherichia coli, JR35/C600
P. aeruginosa A9930 = assay: MIC by serial agar dilution; format: cell-based; conditions: Pseudomonas aeruginosa, medium A: Nutrient agar, read-out: MIC
S. aureus Smith [1] = assay: MIC by serial agar dilution; format: cell-based; conditions: Staphylococcus aureus; S. aureus Smith; medium A: Nutrient agar; read-out: MIC
S. aureus 209P = assay: MIC by serial agar dilution; format: cell-based; conditions: Staphylococcus aureus; S. aureus 209P; medium A: Nutrient agar; read-out: MIC
Mycobacterium ranae = assay: MIC by serial agar dilution; format: cell-based; conditions: Mycobacterium ranae; medium B: No. 1001 medium; read-out: MIC
basicity = format: physicochemical
P. vulgaris A9436 = assay: MIC by serial agar dilution; format: cell-based; conditions: Proteus vulgaris, medium A: Nutrient agar, read-out: MIC
E. coli K-12 = assay: MIC by serial agar dilution; format: cell-based; conditions: Escherichia coli, K12, medium A: Nutrient agar, read-out: MIC
solubility = format: physicochemical
S. aureus A20239 = assay: MIC by serial agar dilution; format: cell-based; conditions: Staphylococcus aureus; S. aureus A20239, kanamycin resistant strain; medium A: Nutrient agar; read-out: MIC
Mycobacterium 607 D46 = assay: MIC by serial agar dilution; format: cell-based; conditions: Mycobacterium 607 D46, kanamycin resistant strain; medium B: No. 1001 medium; read-out: MIC
S. aureus Smith [2] = assay: in vivo efficacy in mice against experimental infection; conditions: Staphylococcus aureus, im, 120 h; mice, i.m. just before challenge, S. aureus Smith, 5 days observation; read-out: PD50
S. marcescens A20019 = assay: MIC by serial agar dilution; format: cell-based; conditions: Serratia marcescens, A20019
E. cloacae A21006 = assay: MIC by serial agar dilution; format: cell-based; conditions: Enterobacter cloacae; E. cloacae A21006, kanamycin resistant strain; medium A: Nutrient agar; read-out: MIC
M. luteus PCI-1001 = assay: MIC by serial agar dilution; format: cell-based; conditions: Micrococcus luteus, PCI1001; M. luteus PCI-1001; medium A: Nutrient agar; read-out: MIC
[3] = test system: experimental infections produced by S. aureus, E. coli and K. pneumoniae; assay: in vivo activity in mice, Table 5 overall; conditions: i.m.
P. aeruginosa A9843A = assay: microbe, parasite or virus in culture; format: cell-based; conditions: Pseudomonas aeruginosa, A9843A
B. subtilis PCI-219 = assay: inhibiting growth of B. subtilis PCI-219 (paper disc); format: cell-based; conditions: Bacillus subtilis, PCI219, 28° C., 18 hours
Protocol: Boholmycin dihydrochloride tetrahydrate was tested in comparison with streptomycin, glebomycin, myomycin B and kanamycin in respect to stimulating growth of E. coli D64 and in respect to inhibiting growth of B. subtilis PCI-219. The results are shown in Table 4 wherein the term "boholmycin" is used for short in referring to boholmycin dihydrochloride tetrahydrate.
*^1 8 mm paper disc containing 35 μl of test solution
*^3 Incubation at 28° C. for 18 hours

K. pneumoniae D-11 [4] = assay: MIC by serial agar dilution; format: cell-based; conditions: Klebsiella pneumoniae, D11, medium A: Nutrient agar, read-out: MIC
B. anthracis IID-115 = assay: microbe, parasite or virus in culture; format: cell-based; conditions: Bacillus anthracis, IID115
E. coli NIHJ = assay: MIC by serial agar dilution; format: cell-based; conditions: Escherichia coli, medium A: Nutrient agar, read-out: MIC
E. coli D64 = assay: stimulating growth of streptomycin-dependent E. coli D64 (paper disc); format: cell-based; conditions: for Growth zone vs E. coli D64, hazy growth zone: value in parentheses
Source text: The results are shown in Table 4 wherein the term "boholmycin" is used for short in referring to boholmycin dihydrochloride tetrahydrate.

Mycobacterium 607 D87 = assay: MIC by serial agar dilution; format: cell-based; conditions: Mycobacterium 607 D87; medium B: No. 1001 medium; read-out: MIC
E. cloacae A20364 = assay: MIC by serial agar dilution; format: cell-based; conditions: Enterobacter cloacae; E. cloacae A20364, kanamycin resistant strain; medium A: Nutrient agar; read-out: MIC
E. coli Juhl [5] = assay: MIC by serial agar dilution; format: cell-based; conditions: Escherichia coli, medium A: Nutrient agar, read-out: MIC
bacteria = assay: in vitro antibacterial activity, Table 3 panel overall; format: cell-based
Protocol: The minimum inhibitory concentration (MIC) of boholmycin dihydrochloride tetrahydrate was determined by a serial agar dilution method in comparison with sorbistin A1, streptomycin and kanamycin. Nutrient agar (Difco) was used for all bacteria except for strains of Mycobacterium which were tested in No. 1001 agar.

K. pneumoniae D-11 [6] = assay: in vivo efficacy in mice against experimental infection; conditions: Klebsiella pneumoniae, D11, im, 120 h; mice, i.m. just before challenge, K. pneumoniae D-11, 5 days observation; read-out: PD50
B. subtilis ATCC6633 = assay: MIC by serial agar dilution; format: cell-based; conditions: Bacillus subtilis, medium A: Nutrient agar, read-out: MIC
[7] = toxic signs in mice, intravenous administration; format: in vivo; conditions: up to a dose of 1,000 mg/kg
K. pneumoniae A9678 = assay: MIC by serial agar dilution; format: cell-based; conditions: Klebsiella pneumoniae, medium A: Nutrient agar, read-out: MIC
Mycobacterium phlei = assay: MIC by serial agar dilution; format: cell-based; conditions: Mycolicibacterium phlei; Mycobacterium phlei; medium B: No. 1001 medium; read-out: MIC
E. coli A20664 = assay: MIC by serial agar dilution; format: cell-based; conditions: Escherichia coli; E. coli A20664, kanamycin resistant strain; medium A: Nutrient agar; read-out: MIC
E. coli Juhl [8] = assay: in vivo efficacy in mice against experimental infection; conditions: Escherichia coli, im, 120 h; mice, i.m. just before challenge, E. coli Juhl, 5 days observation; read-out: PD50
S. marcescens A22302 = assay: MIC by serial agar dilution; format: cell-based; conditions: Serratia marcescens, A22302
stability in solution = format: physicochemical

Work on `CNC1C(OC2C(O)C(OC3OC(CO)C(O)C(N)C3O)C(OC(N)=O)C(O)C2OC(N)=O)OCC(OC2OC(C(O)CO)C(O)C(O)C2O)C1O` (centres unmarked) [Boholmycin] yielded an MIC (P. mirabilis A9554) of 50 µg/mL (≈ 65.4 µM), an MIC (M. flavus D-12) of 100 µg/mL (≈ 131 µM) and an MIC (P. aeruginosa A20601) of 12.5 µg/mL (≈ 16.3 µM). It also gave an MIC (E. coli JR35/c600) of 25 µg/mL (≈ 32.7 µM), an MIC (P. aeruginosa A9930) of 100 µg/mL (≈ 131 µM) and an MIC (S. aureus Smith [1]) of 200 µg/mL (≈ 262 µM). For the same compound, the MIC (S. aureus 209P) was 200 µg/mL (≈ 262 µM), the MIC (Mycobacterium ranae) was 25 µg/mL (≈ 32.7 µM) and the basicity (basicity) was “weakly basic”. The MIC (P. vulgaris A9436) was 6.3 µg/mL (≈ 8.24 µM), the MIC (E. coli K-12) was 25 µg/mL (≈ 32.7 µM) and the “solubility in methanol and ethanol” value (solubility; methanol and ethanol) was “slightly soluble in methanol and ethanol”. The “solubility in other organic solvents” value (solubility; other organic solvents) was “practically insoluble in other organic solvents”, the solubility in water (solubility; water) was “freely soluble in water” and the MIC (S. aureus A20239) was greater than 200 µg/mL. The MIC (Mycobacterium 607 D46) was 25 µg/mL (≈ 32.7 µM), the ED50 (S. aureus Smith [2]) was 75 mg/kg and the MIC (S. marcescens A20019) was 100 µg/mL (≈ 131 µM). The MIC (E. cloacae A21006) was 50 µg/mL (≈ 65.4 µM), the MIC (M. luteus PCI-1001) was 200 µg/mL (≈ 262 µM) and the “in vivo activity compared with streptomycin and kanamycin” value [3] was “much less active than streptomycin and kanamycin”. For the same compound, the MIC (P. aeruginosa A9843A) was 200 µg/mL (≈ 262 µM), the zone of inhibition at 10000 µg/mL (B. subtilis PCI-219; 10 mg/ml) was 30 mm and the zone of inhibition at 40000 µg/mL (B. subtilis PCI-219; 40 mg/ml) was 33 mm. The MIC (K. pneumoniae D-11 [4]) was 6.3 µg/mL (≈ 8.24 µM), the MIC (B. anthracis IID-115) was 25 µg/mL (≈ 32.7 µM) and the MIC (E. coli NIHJ) was 50 µg/mL (≈ 65.4 µM). The “Growth zone vs E. coli D64, hazy growth zone” value (E. coli D64; 10 mg/ml, 37° C., 45 hours) was 16 mm, the “Growth zone vs E. coli D64” value (E. coli D64; 40 mg/ml, 37° C., 45 hours) was 18 mm and the “Growth zone vs E. coli D64, hazy growth zone” value (E. coli D64; 40 mg/ml, 37° C., 45 hours) was 23 mm. The “induction/stimulation of growth of streptomycin-dependent E. coli D64” value (E. coli D64; result in words) was “induced the growth”, the MIC (Mycobacterium 607 D87) was 25 µg/mL (≈ 32.7 µM) and the MIC (E. cloacae A20364) was 50 µg/mL (≈ 65.4 µM). The MIC (E. coli Juhl [5]) was 100 µg/mL (≈ 131 µM), the “antibacterial activity compared with sorbistin A1” value (bacteria; Table 3 overall, vs sorbistin A1) was “comparable to that of sorbistin A1” and the “antibacterial activity compared with streptomycin or kanamycin” value (bacteria; Table 3 overall, vs streptomycin or kanamycin) was “generally weaker than that of streptomycin or kanamycin”. The “activity against kanamycin and streptomycin-resistant organisms” value (bacteria; resistant vs sensitive organisms) was “as active against kanamycin and streptomycin-resistant organisms as against the sensitive ones”, the ED50 (K. pneumoniae D-11 [6]) was 65 mg/kg and the MIC (B. subtilis ATCC6633) was 50 µg/mL (≈ 65.4 µM). The toxic signs [7] was “did not show any toxic signs”, the MIC (K. pneumoniae A9678) was 100 µg/mL (≈ 131 µM) and the MIC (Mycobacterium phlei) was 6.3 µg/mL (≈ 8.24 µM). It also gave an MIC (E. coli A20664) of 12.5 µg/mL (≈ 16.3 µM), an ED50 (E. coli Juhl [8]) of 100 mg/kg and an MIC (S. marcescens A22302) of 100 µg/mL (≈ 131 µM). The “stability in alkaline solution” value (stability in solution; alkaline solution) was “unstable in alkaline solution” and the “stability in neutral and acidic solution” value (stability in solution; neutral and acidic solution) was “reasonably stable in neutral and acidic solution”.
